The test system of the assay is alopecia mouse model. The assay can be described thus: Hair growth promotion test in mice with alopecia (testosterone propionate model). Type of assay: in vivo, C57BL/6 mice. The method, then:
The compounds of the present disclosure were tested for their hair growth-promoting effects on an alopecia mouse model.
C57BL/6 mice (purchased from SPF (Beijing) Biotechnology Co., Ltd., production license No.: SCXK (Beijing) 2019-0010), test compounds (prepared by the method of the present disclosure), rosin (Shanghai YuanYe Bio-Technology Co., Ltd., lot No. Y18M10C83144), liquid paraffin (Shanghai YuanYe Bio-Technology Co., Ltd., lot No.: Z22S11Y125555), chloral hydrate (Sinopharm Chemical Reagent Co., Ltd., lot No.: 20190823, a 2% chloral hydrate solution was prepared by using a 0.9% sodium chloride solution before use), testosterone propionate (Aladdin Reagent (Shanghai) Co., Ltd., lot No.: T101368, a 0.5% testosterone propionate solution was prepared by using an a soybean oil for injection before use), soybean oil for injection (Liaoning Shinsun Pharmaceutical Co., Ltd., lot No.: NMPA Approval No. H21024303), paraformaldehyde (Xilong Scientific Co., Ltd., lot No.: 1705022), a 0.9% sodium chloride solution (Jiangsu Huai'an Shuanghe Pharmaceutical Co., Ltd., lot No.: 210322-3C), an electronic balance (Beijing Sartorius Scientific Instruments Co., Ltd., model: BS224 S; GZX-9140MBE), and a digital display electric heating constant temperature air blast drying oven (Shanghai Boxun Medical Biological Instrument Corp.).
8-week-old male C57BL/6 mice were selected and injected with 2% chloral hydrate (400 mg/kg) for anesthesia. Equal amounts of rosin and paraffin were weighed out, heated, and mixed well. The mixture was applied on the front back of the mice in an area of about 2 cm×2.5 cm. After the mixture was cooled to be hard, the solidified hair was torn off by tweezers gently.
Qualified C57BL/6 mice (3 mice per group) were randomly assigned to a blank group, a model group, a positive control drug group (7.5% clascoterone group), and test groups (including 0.3% compound 8 group and 0.3% compound 7 group). Mice in the blank group were coated with 0.1 mL of normal saline in the depilated area every morning (1 time a day for 17 consecutive days); mice in the model group were coated with 0.1 mL of 0.5% testosterone propionate solution in the depilated area every morning (1 time a day, starting on the first day, for 17 consecutive days), and with 0.5 mL of the control solvent in the depilated area every afternoon (1 time a day, starting on the second day, for 16 consecutive days); mice in the positive control drug group were coated with 0.1 mL of 0.5% testosterone propionate solution in the depilated area every morning (1 time a day, starting on the first day, for 17 consecutive days), and with 0.5 mL of 7.5% clascoterone solution in the depilated area every afternoon (1 time a day, starting on the second day, for 16 consecutive days); and mice in the test groups were coated with 0.1 mL of 0.5% testosterone propionate solution in the depilated area every morning (1 time a day, starting on the first day, for 17 consecutive days), and with 0.5 mL of 0.3% test compound solution in the depilated area every afternoon (1 time a day, starting on the second day, for 16 consecutive days). The formula of the test compound solution was 0.3% test compound, 40% DMSO, 30% ethanol, and the balance of water; the formula of the control solvent was 40% DMSO, 30% ethanol, and the balance of water; the formula of the positive control drug group was 7.5% clascoterone, 40% DMSO, 30% ethanol, and the balance of water. The hair regrowth in the depilated area of the mice in each group was observed and photographed 16 days after the start of topical administration of the test compound solution.
On day 18 of the test, 5 new hairs were pulled out from the back depilated area of each mouse in each group, the lengths of the hairs were measured using a vernier caliper, and the lengths of the hairs of the mice in each group were counted. The skin of the depilated area of the mice in each group was cut out, and hematoxylin-eosin staining (HE staining) was performed. […]

The source of these data is patent publication US20250295609A1, “COMPOUND HAVING ANTI-ANDROGEN RECEPTOR ACTIVITY, AND USE THEREOF” (NANJING MINOVA PHARMACEUTICAL CO., LTD., priority 2022, published 2025).

`CCC(=O)O[C@]1(C(=O)CO)CC[C@H]2[C@@H]3CCC4=CC(=O)CC[C@]4(C)[C@H]3CC[C@@]21C` [clascoterone, reference compound]: under “alopecia mouse model, FIG. 3”, the “hair growth and number of hair follicles compared to the model group (in words)” value was “significantly grown hairs and the number of hair follicles was significantly increased”. Also, under “day 18, per field (×100), HE staining, topical once daily for 16 days”, the “Number of hair follicles (X ± SD)” value was 53.533 ± 24.929. For the same compound, for the setting “day 18, topical once daily for 16 days, testosterone propionate alopecia mice”, the “Hair length (X ± SD)” value is given as 5.649 ± 0.059 mm.
